Assay results as given in article PMC10739246 (ACS Bio & Med Chem Au, 2023).
Values after ≈ are worked out from the molar mass of the structure shown. “Also recorded” adds a separate entry of the source. Read-outs that look alike come from different tables or passages of the source.

What was measured:
P. aeruginosa (PAO1) = assay: MIC, microdilution, P. aeruginosa PAO1; format: cell-based, Pseudomonas aeruginosa; conditions: Pseudomonas aeruginosa, PAO1
[1] = system: PonA in B. subtilis TNVS45; assay: PonA localization; conditions: 1x MIC; 30 min (vancomycin) or 1 h
B. subtilis DSM402 [2] = conditions: Table 2; cells treated with 1x MIC
[3] = system: S. aureus (ATCC 43300) MRSA; assay: MIC, microdilution, MRSA ATCC 43300; format: cell-based, Staphylococcus aureus; conditions: Staphylococcus aureus; norfloxacin-resistant strain
E. coli BCB472 = assay: GlpT localization (inner membrane) in E. coli BCB472; conditions: 1x MIC, 1 h; GFP-tagged membrane protein
[4] = system: MurG in B. subtilis TNVS175; assay: MurG localization; format: cell-based, Bacillus subtilis; conditions: 1x MIC; 30 min (vancomycin) or 1 h;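 also: normal MurG forms small membrane spots and peptidoglycan inhibition gives large clusters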
E. faecalis (ATCC 19433) = assay: MIC, E. faecalis ATCC 19433; format: cell-based, Enterococcus faecalis; conditions: Enterococcus faecalis, ATCC19433
[5] = system: cell wall biosynthesis in B. subtilis DSM402; assay: Summary of cell wall synthesis experiments; format: cell-based, Bacillus subtilis
[6] = system: norfloxacin-resistant clinical isolate of E. coli; assay: MIC, microdilution, norfloxacin-resistant clinical isolate of E. coli; format: cell-based, Escherichia coli; conditions: Escherichia coli, read-out: MIC E. coli (norfloxacin-resistant strain)
E. coli (W3110) = assay: MIC, microdilution, E. coli W3110; format: cell-based, Escherichia coli; conditions: Escherichia coli
S. aureus (CCUG1800T) = assay: MIC, microdilution, S. aureus CCUG1800T; format: cell-based, Staphylococcus aureus; conditions: Staphylococcus aureus
B. subtilis DSM402 [7] = assay: Bacterial cytological profiling (BCP) in B. subtilis DSM402; format: cell-based, Bacillus subtilis
[8] = system: MraY in B. subtilis TNVS284; assay: MraY localization; conditions: 1x MIC; 30 min (vancomycin) or 1 h
E. coli [9] = assay: microbe, parasite or virus in culture; conditions: Escherichia coli, read-out: MICC (MIC of the test compound alone)
B. subtilis DSM402 [10] = assay: microbe, parasite or virus in culture; conditions: Bacillus subtilis, DSM402, read-out: concentration (MIC against B. subtilis DSM402)
E. coli topoisomerase IV = biological target: T1, E. coli topoisomerase IV (Escherichia coli, UniProt P0AFI2+P20083); assay: In vitro topoisomerase IV cleavage assay; format: biochemical; conditions: read-out: % topoisomerase IV inhibition
T1 construct: purchased Inspiralis
T1 sequence (P0AFI2 whole entry): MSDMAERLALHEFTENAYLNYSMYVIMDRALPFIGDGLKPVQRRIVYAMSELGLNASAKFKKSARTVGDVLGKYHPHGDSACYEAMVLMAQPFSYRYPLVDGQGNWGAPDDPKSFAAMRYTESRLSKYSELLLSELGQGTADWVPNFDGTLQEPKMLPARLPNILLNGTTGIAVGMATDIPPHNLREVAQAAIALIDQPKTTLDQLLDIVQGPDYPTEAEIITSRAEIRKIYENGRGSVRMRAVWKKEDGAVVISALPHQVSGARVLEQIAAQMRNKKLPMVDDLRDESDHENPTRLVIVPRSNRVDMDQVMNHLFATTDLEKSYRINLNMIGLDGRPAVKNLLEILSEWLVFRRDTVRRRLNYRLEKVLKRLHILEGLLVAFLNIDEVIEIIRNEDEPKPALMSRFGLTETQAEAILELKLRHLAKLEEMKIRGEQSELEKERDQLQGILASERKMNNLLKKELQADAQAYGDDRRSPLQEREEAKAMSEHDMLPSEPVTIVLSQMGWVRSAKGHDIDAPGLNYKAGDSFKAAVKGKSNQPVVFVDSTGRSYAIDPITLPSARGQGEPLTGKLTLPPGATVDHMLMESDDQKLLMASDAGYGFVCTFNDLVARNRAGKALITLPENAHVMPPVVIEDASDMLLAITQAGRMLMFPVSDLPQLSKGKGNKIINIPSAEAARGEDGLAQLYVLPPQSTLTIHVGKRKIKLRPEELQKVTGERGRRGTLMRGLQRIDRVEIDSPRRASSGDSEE
T1 sequence (P20083 whole entry): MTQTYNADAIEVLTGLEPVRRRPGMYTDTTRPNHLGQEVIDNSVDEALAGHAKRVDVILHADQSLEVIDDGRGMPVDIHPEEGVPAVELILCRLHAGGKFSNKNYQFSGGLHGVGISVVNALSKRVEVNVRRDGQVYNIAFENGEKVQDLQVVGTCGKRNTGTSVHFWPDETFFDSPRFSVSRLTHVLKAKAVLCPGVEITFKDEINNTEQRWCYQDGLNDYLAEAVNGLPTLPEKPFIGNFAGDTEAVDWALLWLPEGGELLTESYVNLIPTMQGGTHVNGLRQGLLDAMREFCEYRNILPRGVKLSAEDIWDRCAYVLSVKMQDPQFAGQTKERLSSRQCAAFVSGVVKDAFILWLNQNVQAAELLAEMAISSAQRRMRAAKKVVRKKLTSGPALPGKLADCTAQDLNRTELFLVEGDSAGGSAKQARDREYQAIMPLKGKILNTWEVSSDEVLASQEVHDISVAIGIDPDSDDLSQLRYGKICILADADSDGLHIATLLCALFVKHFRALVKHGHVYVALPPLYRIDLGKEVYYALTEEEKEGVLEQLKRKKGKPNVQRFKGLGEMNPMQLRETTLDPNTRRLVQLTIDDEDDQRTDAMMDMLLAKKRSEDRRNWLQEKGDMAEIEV

E. coli [11] = system: E. coli
MreB in B. subtilis MW10 = assay: MreB mobility assay; format: cell-based, Bacillus subtilis; conditions: B. subtilis MW10, 1 h of antibiotic exposure
Description: MreB is an actin homologue that forms filamentous structures along the lateral axis of the cell. It moves along the length of the cells in a spiraling pattern thereby driving lateral peptidoglycan synthesis.[36],[37] MreB mobility is sensitive to inhibition of peptidoglycan synthesis and so far, every cell wall synthesis inhibitor we tested abolished MreB movement (see Figure S70 for examples).
Expression of msfGFP-MreB was induced with 0.3% xylose. Pictures were taken after 1 h of antibiotic exposure. Two images of the same field of view were recorded 30 s apart and overlaid in ImageJ to visualize MreB mobility. A perfect overlap (yellow) indicates stalled MreB movement, while distinct red and green foci are indicative of MreB mobility. Scale bar 2 μm.
Fig. S70: MreB motility in B. subtilis MW10 after treatment with different cell wall synthesis inhibitors. Expression of GFP-MreB was induced with 0.3% xylose. Cells were treated with 1x […]
Two images of the same field of view were recorded 30 sec apart and overlaid in ImageJ to visualize MreB mobility. A perfect overlap (yellow) indicates stalled MreB movement while distinct red and green spots are indicative of MreB mobility. Scale bar 2 µm.

E. coli W3110 = assay: Bacterial cytological profiling (BCP) in E. coli W3110; format: cell-based, Escherichia coli
[12] = system: M. tuberculosis (MC26020); assay: microbe, parasite or virus in culture; format: cell-based, Mycobacterium tuberculosis; conditions: Mycobacterium tuberculosis, read-out: MIC M. tuberculosis (MC26020)
E. coli DNA gyrase = biological target: T2, E. coli DNA gyrase (Escherichia coli, UniProt P0AES4+P0AES6); assay: In vitro DNA gyrase cleavage assay; format: biochemical
T2 construct: purchased Inspiralis
T2 sequence (P0AES4 whole entry, one chain of several): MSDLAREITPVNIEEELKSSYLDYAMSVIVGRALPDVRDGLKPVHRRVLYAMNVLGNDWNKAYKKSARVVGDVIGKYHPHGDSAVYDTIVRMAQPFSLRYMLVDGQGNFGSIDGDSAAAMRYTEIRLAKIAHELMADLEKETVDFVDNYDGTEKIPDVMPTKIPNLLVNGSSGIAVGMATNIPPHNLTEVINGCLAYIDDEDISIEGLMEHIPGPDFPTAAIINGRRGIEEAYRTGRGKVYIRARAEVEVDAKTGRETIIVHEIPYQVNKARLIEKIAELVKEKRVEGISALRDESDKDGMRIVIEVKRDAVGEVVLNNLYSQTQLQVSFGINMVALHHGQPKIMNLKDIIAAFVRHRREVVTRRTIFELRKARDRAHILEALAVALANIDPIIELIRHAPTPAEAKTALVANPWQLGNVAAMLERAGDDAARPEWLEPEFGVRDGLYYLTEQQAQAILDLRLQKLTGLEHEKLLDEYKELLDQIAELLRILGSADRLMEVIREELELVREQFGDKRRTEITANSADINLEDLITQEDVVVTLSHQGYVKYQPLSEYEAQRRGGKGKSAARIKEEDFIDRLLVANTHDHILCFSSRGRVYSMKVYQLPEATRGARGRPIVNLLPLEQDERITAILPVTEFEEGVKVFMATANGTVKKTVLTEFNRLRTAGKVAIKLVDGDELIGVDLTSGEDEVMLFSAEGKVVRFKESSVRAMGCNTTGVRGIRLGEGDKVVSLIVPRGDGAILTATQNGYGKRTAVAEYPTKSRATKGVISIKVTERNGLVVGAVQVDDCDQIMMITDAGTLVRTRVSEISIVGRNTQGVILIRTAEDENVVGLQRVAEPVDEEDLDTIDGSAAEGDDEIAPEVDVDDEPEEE

B. subtilis DSM402 [13] = assay: Peptidoglycan integrity assay (acetic acid/methanol fixation); conditions: 1x MIC; 30 min (cell wall inhibitors) or 60 min
[14] = system: K. pneumoniae (ATCC 10031); assay: MIC, K. pneumoniae ATCC 10031; format: cell-based, Klebsiella pneumoniae; conditions: Klebsiella pneumoniae, ATCC10031
[15] = system: PbpB in B. subtilis EKB46; assay: PbpB localization; conditions: 1x MIC; 30 min (vancomycin) or 1 h
[16] = 1x MIC, 1 h, indicates cell lysis
[17] = interpretation of BCP in B. subtilis
[18] = interpretation of BCP in E. coli

In the case of `CCn1cc(C(=O)O)c(=O)c2cc(F)c(N3CCN(CNc4ccc([N+](=O)[O-])cc4)CC3)cc21` [compound 21], the MIC (P. aeruginosa (PAO1)) is reported as 2.13 µM (≈ 1 µg/mL), the “protein localization PonA” value [1] is reported as “neither compound affected the localization; also recorded: septal” and the “μM (concentration used, 1x MIC)” value (B. subtilis DSM402 [2]) is reported as 2.13 µM. The MIC [3] was 34.1 µM (≈ 16 µg/mL), the GlpT (E. coli BCB472) was “Smooth” and the “protein localization MurG” value [4] was “only visible in the proximity of the cell poles; also recorded: polar spotty”. The MIC (E. faecalis (ATCC 19433)) was 2.13 µM (≈ 1 µg/mL), the “CWB inhibited?” value [5] was “yes ^b” and the MIC [6] was 17 µM (≈ 8 µg/mL). It also gave an MIC (E. coli (W3110); read-out: concentration (MIC against E. coli W3110)) of 0.266 µM, an MIC (E. coli (W3110); E. coli W3110, converted from 0.266 μM, read-out: MIC) of 0.125 µg/mL and an MIC (E. coli (W3110); Gram-negative strain, average of duplicate experiments, read-out: MIC E. coli (W3110)) of 0.266 µM. It also gave an MIC (E. coli (W3110); Tab. S10, topoisomerase IV side, strain not given, values equal E. coli W3110 of Table 1, read-out: MIC) of 0.266 µM, an MIC (S. aureus (CCUG1800T); Tab. S10, DNA gyrase side, strain not given, values equal S. aureus CCUG1800T of Table 1, read-out: MIC) of 2.13 µM (≈ 1 µg/mL) and an MIC (S. aureus (CCUG1800T); read-out: MIC S. aureus (CCUG1800T)) of 2.13 µM (≈ 1 µg/mL). For the same compound, the DAPI (B. subtilis DSM402 [7]; 1x MIC, 1 h, DNA condensation) was “condensed”, the phase contrast (B. subtilis DSM402 [7]; [16]) was “dark” and the FM4-64 (B. subtilis DSM402 [7]; 1x MIC, 1 h, membrane stain) was “smooth”. The gyrase inhibition (B. subtilis DSM402 [7]; [17]) was “yes”, the membrane damage (B. subtilis DSM402 [7]; [17]) was “no” and the “protein localization MraY” value [8] was “neither compound affected the localization; also recorded: rough”. For the same compound, the MIC (E. coli [9]) was 0.125 µg/mL, the MIC (B. subtilis DSM402 [10]) was 2.13 µM (≈ 1 µg/mL) and the inhibition at 10 µM (E. coli topoisomerase IV) was 45.5%. The “FICC (fractional inhibitory concentration of the test compound)” value (E. coli [11]; MICCcheckerboard/MICC) was 0.0039, the Outcome (E. coli [11]; checkerboard with mupirocin) was “additive (>0.5 to ≤4.0 as additive (no interaction))” and the “FICM (MICMcheckerboard/MICM)” value (E. coli [11]; mupirocin alone 64 µg/mL) was 1. The “FICI (fractional inhibitory concentration index)” value (E. coli [11]; with mupirocin, FICC+FICM) was 1.004, the MreB mobility (MreB in B. subtilis MW10) was “much smaller clusters and more clusters per cell; also recorded: mobile with static foci” and the DAPI (E. coli W3110; 1x MIC, 1 h, DNA condensation) was “condensed”. For the same compound, the phase contrast (E. coli W3110; [16]) was “dark”, the FM4-64 (E. coli W3110; 1x MIC, 1 h, membrane stain) was “Smooth” and the gyrase inhibition (E. coli W3110; [18]) was “yes”. The membrane damage (E. coli W3110; [18]) was “no”, the MIC [12] was 6.39 µM (≈ 3 µg/mL) and the inhibition at 10 µM (E. coli DNA gyrase) was 77.9%. For the same compound, the PG integrity (B. subtilis DSM402 [13]) was “came close to the cutoff value; also recorded: Intact”, the MIC [14] was 4.26 µM (≈ 2 µg/mL) and the “protein localization PbpB” value [15] was “neither compound affected the localization; also recorded: smooth”.
